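Method: 48-hour compound exposure of cells in 96-well plates, five concentrations, linear interpolation of endpoints. Abbreviation: GI50, concentration required for 50% inhibition of growth.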 Calls of active or inactive are those of the source. Cut-off read from the data, not from the text of the source: active = GI50 up to about 1.1 µM and inactive = higher.

Some test systems named below: 786-0; CAKI-1; COLO 205; HL-60; HOP-62; K562; LOX IMVI; M14; MOLT-4; Malme-3M; PC-3; RXF 393; SF-539; SK-MEL-28; SN12C; SNB-75; SW-620; TK-10; UACC-257; UACC-62.
Holding throughout (assay): growth of human tumour cells (NCI), 48 h

For `Cc1ccc(CC(=O)Nc2ccc(NC(=O)/C=C/NC(=O)/C=C/c3ccc(-c4ccccc4)cc3)cc2C(=O)c2ccccc2)cc1`, the GI50 in the test with 786-0 is 1.6 µM (inactive); with CAKI-1 it was 3.29 µM (inactive); with COLO 205, 1.75 µM (inactive); in the test with HL-60 it was 16.9 µM (inactive); in the test with HOP-62, 2.11 µM (inactive); in the test with K562, 11.1 µM (inactive). The GI50 in the test with LOX IMVI was 2.03 µM (inactive); in the test on M14 it was 2.56 µM (inactive); in the test with MOLT-4, 4.17 µM (inactive); with Malme-3M it was 3.39 µM (inactive); in the test on PC-3, 1.47 µM (inactive); with RXF 393, 1.46 µM (inactive). Further, the GI50 in the test with SF-539 was 1.67 µM (inactive); with SK-MEL-28 it was 3.03 µM (inactive); with SN12C it was 1.92 µM (inactive); in the test with SNB-75, 1.93 µM (inactive); in the test on SW-620, 1.57 µM (inactive); with TK-10 it was 2.78 µM (inactive). The GI50 in the test with UACC-257 is 2.05 µM (inactive); in the test on UACC-62 it was 2.16 µM (inactive).

Consider `CCCCCCc1cc2cc(-c3cn4ccccc4n3)c(=O)oc2cc1O`, for which the GI50 is 2.12 µM (inactive) in the test on 786-0; 4.67 µM (inactive) in the test with CAKI-1; > 100 µM (inactive) with COLO 205; 30.7 µM (inactive) in the test on HL-60; 11.8 µM (inactive) in the test with HOP-62; 4.61 µM (inactive) in the test with K562. In addition, the GI50 with LOX IMVI is 4.72 µM (inactive); in the test on M14, 5.52 µM (inactive); with MOLT-4, 7.91 µM (inactive); in the test on Malme-3M, 1.71 µM (inactive); in the test with PC-3 it was 18.7 µM (inactive); in the test on RXF 393, 4.14 µM (inactive). Moreover, the GI50 in the test with SF-539 was 2.76 µM (inactive); in the test on SK-MEL-28, 9.14 µM (inactive); with SN12C it was 5.35 µM (inactive); in the test with SNB-75, 3.14 µM (inactive); in the test with SW-620, 9.93 µM (inactive); in the test on TK-10, 15.5 µM (inactive). Besides, the GI50 was 18.1 µM (inactive) in the test with UACC-257 and 8.17 µM (inactive) in the test on UACC-62.

`COc1ccc(NC/C=C/C(=C/COC(C)=O)OC(C)=O)cc1`: the GI50 is 1.18 µM (inactive) with 786-0; 1.89 µM (inactive) in the test with CAKI-1; 1.88 µM (inactive) in the test with COLO 205; 2.27 µM (inactive) in the test with HL-60; 2.42 µM (inactive) with HOP-62; 1.85 µM (inactive) in the test on K562. The GI50 is 2.13 µM (inactive) in the test on LOX IMVI; 1.73 µM (inactive) in the test on M14; 4.75 µM (inactive) in the test with MOLT-4; 2.34 µM (inactive) with Malme-3M; 2.28 µM (inactive) with PC-3; 1.6 µM (inactive) in the test on RXF 393. For the same compound, the GI50 with SF-539 is 2 µM (inactive); in the test with SK-MEL-28, 1.87 µM (inactive); in the test on SN12C, 2.12 µM (inactive); with SNB-75, 7.23 µM (inactive); in the test with SW-620, 1.69 µM (inactive); in the test on TK-10, 1.87 µM (inactive). For the same compound, the figures for the GI50 in the test on UACC-257 and in the test with UACC-62 were 2.24 µM (inactive) and 3.82 µM (inactive), respectively.

Regarding `CCOC(=O)Nc1nc2cc(Cn3cccc3)ccc2[nH]1`, the GI50 is 1.09 µM (active) in the test with 786-0; 0.873 µM (active) in the test on CAKI-1; 1.84 µM (inactive) with COLO 205; 0.27 µM (active) with HL-60; 1.36 µM (inactive) with HOP-62; 0.359 µM (active) in the test on K562. Moreover, the GI50 with LOX IMVI was 2.55 µM (inactive); in the test with M14, 1.65 µM (inactive); with MOLT-4 it was 0.64 µM (active); with Malme-3M, 1.09 µM (active); in the test with PC-3, 0.399 µM (active); in the test with RXF 393, 4.03 µM (inactive). Moreover, the GI50 with SF-539 was 0.865 µM (active); in the test on SK-MEL-28, 4.89 µM (inactive); in the test on SN12C it was 2.33 µM (inactive); in the test with SNB-75, 0.356 µM (active); with SW-620 it was 0.564 µM (active); in the test with TK-10, 19.5 µM (inactive). Also, the GI50 in the test with UACC-257 is 3.82 µM (inactive); in the test on UACC-62, 0.828 µM (active).

In the case of `C=C(CN(C)C)C(=O)c1ccccc1`, the GI50 in the test with 786-0 was 3.3 µM (inactive); in the test with CAKI-1, 4.75 µM (inactive); in the test on COLO 205 it was 1.46 µM (inactive); in the test with HL-60, 0.577 µM (active); in the test with HOP-62, 32.9 µM (inactive); in the test on K562, 2.07 µM (inactive). Further, the GI50 in the test with LOX IMVI is 7.93 µM (inactive); in the test on M14, 2.31 µM (inactive); in the test on MOLT-4 it was 1.91 µM (inactive); with Malme-3M, 2.41 µM (inactive); with PC-3, 16 µM (inactive); in the test on RXF 393, 2.33 µM (inactive). Besides, the GI50 in the test on SF-539 was 8.34 µM (inactive); in the test on SK-MEL-28 it was 16.5 µM (inactive); in the test on SN12C it was 17.4 µM (inactive); in the test with SNB-75, 17 µM (inactive); in the test on SW-620, 1.69 µM (inactive); in the test with TK-10, 4.49 µM (inactive). Besides, the GI50 with UACC-257 is 11.5 µM (inactive); in the test with UACC-62, 14.8 µM (inactive).

Consider `NC(=O)NN=C1Cc2ccccc2C1`, for which the GI50 in the test on 786-0, in the test on CAKI-1, with COLO 205, in the test with HL-60, with HOP-62 and with K562 was > 100 µM (inactive) throughout. Besides, the GI50 with LOX IMVI, in the test on M14, in the test on MOLT-4, in the test with Malme-3M, in the test with PC-3 and with RXF 393 was > 100 µM (inactive) throughout. The GI50 with SF-539, in the test on SK-MEL-28, in the test with SN12C, with SNB-75, in the test on SW-620 and with TK-10 was > 100 µM (inactive) each time. For the same compound, the GI50 in the test with UACC-257 and in the test on UACC-62 was > 100 µM (inactive) in each case.

As to `Cc1ccc2c3ccc4c(c3n(C)c2c1)C(=O)C=CC4=O`, the GI50 with 786-0 is 2.33 µM (inactive); in the test on CAKI-1 it was 3.36 µM (inactive); with COLO 205, 2.5 µM (inactive); with HL-60 it was 1.04 µM (active); in the test on HOP-62, > 10 µM (inactive); in the test with K562 it was 1.03 µM (active). Also, the GI50 is > 10 µM (inactive) in the test on LOX IMVI; 3.66 µM (inactive) in the test on M14; 0.475 µM (active) with MOLT-4; 2.58 µM (inactive) in the test with Malme-3M; > 10 µM (inactive) in the test with PC-3; 4.25 µM (inactive) with RXF 393. The GI50 in the test on SF-539 was > 5.98 µM (inactive); with SK-MEL-28, > 6.01 µM (inactive); with SN12C, > 10 µM (inactive); with SNB-75, > 10 µM (inactive); in the test on SW-620 it was 1.74 µM (inactive); in the test with TK-10 it was 4.82 µM (inactive). Moreover, the GI50 in the test on UACC-257 is 6.67 µM (inactive); with UACC-62 it was > 8.22 µM (inactive).

`C=CC1(CBr)CCC(C(C)(C)Br)O1` (stereo not given): the GI50 in the test with 786-0 is 1.79 µM (inactive); with CAKI-1, 7.23 µM (inactive); in the test on COLO 205, 5.43 µM (inactive); with HL-60, 0.832 µM (active); in the test with HOP-62, 15.9 µM (inactive); in the test with K562, 3.71 µM (inactive). Besides, the GI50 in the test with LOX IMVI was 1.74 µM (inactive); with M14, 13.1 µM (inactive); in the test on MOLT-4, 2.21 µM (inactive); in the test with Malme-3M, 13.7 µM (inactive); in the test with PC-3, 12 µM (inactive); in the test on RXF 393, 13.7 µM (inactive). For the same compound, the GI50 is 16.9 µM (inactive) in the test on SF-539; 7.73 µM (inactive) with SK-MEL-28; 16.6 µM (inactive) in the test on SN12C; 5.65 µM (inactive) in the test with SNB-75; 3.56 µM (inactive) in the test on SW-620; 15.1 µM (inactive) in the test with TK-10. The GI50 is 13.7 µM (inactive) in the test with UACC-257 and 10.3 µM (inactive) in the test on UACC-62.

(Values after ChEMBL document CHEMBL1201862, “PubChem BioAssay data set” (2004).)
